Source: patent US9751919B2, “Antimicrobial compositions comprising a hyaluronic acid binding peptide and a β-lactam antibiotic” (priority 2012, dated 2017)
Values joined by “and” are separate entries in the source; they are usually repeats but may differ in a detail not shown here. Equal values may be shown once.

Key:
Assay in all cases: Checkerboard assay (FIC index)
Conditions in all cases: antibiotic combined with PEP35
S. pneumoniae = type: cell-based, Streptococcus pneumoniae
Method: (§1) The checkerboard assays were carried out as described by Eliopoulos and Moellering (Chapter 9) in Antibiotic in Laboratory Medicine, Lorian Ed. 1996 as well as Bonapace et al. Diagnostic Microbiology and Infectious Diseases 2002; 44:363-366 and Bonapace et al. Diagnostic Microbiology and Infectious Diseases 2000; 38:43-50. In brief, checkerboard assays were performed in 96 well microtitre trays using an 8-by-8 well configuration. […] 96-well custom designed microtitre plates contained 100 ul/well of cation adjusted Mueller-Hinton broth (eg. for Enterobacteriaceae) with or without lysed horse blood (2-5% V/V) [eg. for S. pneumoniae] and were inoculated to achieve a final concentration of approximately 5×10^5 CFU/ml and incubated in ambient air for 24 hours prior to reading. Colony counts were performed periodically to confirm inocula. Quality control was performed every two weeks using a variety of ATCC QC organisms including; S. pneumoniae 49619, S. aureus 29213, E. faecalis 29212, E. coli 25922 and P. aeruginosa 27853. For all antimicrobials as well as PEP35, CLSI criteria was used.
(§2) The fractional inhibitory concentration index (FIC index) was used to interpret synergy, antagonism or additivity/indifference. FIC index=FIC of drug A+FIC of drug B where:
(§3) The FIC of drug A and drug B is calculated as follows, FIC drug A=MIC of drug A in combination/MIC of drug A alone and FIC of drug B=MIC of drug B in combination/MIC of drug B alone. Synergy is defined as FIC index ≦0.5, additivity/indifference FIC >0.5-4 and antagonism FIC index >4.
(§4) Antimicrobials used included PEP35, cefazolin, ceftriaxone, vancomycin, linezolid, tigecycline and daptomycin versus Gram-positive cocci and PEP35, gentamicin, levofloxacin, piperacillin/tazobactam, meropenem and colistin (Polymyxin E) versus Gram-negative bacilli. These agents were obtained as laboratory grade powders from their respective manufacturers. Stock solutions were prepared and dilutions made as described by the Clinical Laboratory Standards Institute (2005 CLSI).
(§5) Organisms included Gram-positive cocci (2 strains of each): Methicillin-susceptible Staphylococcus aureus (MSSA), community-associated (CA) and healthcare-associated (HA) methicillin-resistant Staphylococcus aureus (MRSA), vancomycin-intermediate Staphylococcus aureus (VISA), vancomycin-resistant Staphylococcus aureus (VRSA), methicillin-resistant Staphylococcus epidermidis (MRSE), Streptococcus pyogenes, Streptococcus agalactiae, Streptococcus pneumoniae, Enterococcus faecalis, Enterococcus faecium and vancomycin-resistant enterococcus (VRE). Gram-negative bacilli tested (2 strains of each) included: E. coli, Pseudomonas aeruginosa, Klebsiella pneumoniae, K. oxytoca, Enterobacter cloacae, P. mirabilis and Stenotrophomonas maltophilia. MIC testing, following two subcultures from frozen stock were determined by the CLSI 2005 approved broth microdilution method.

MSSA = type: cell-based, Staphylococcus aureus
Method: (§6) Checkerboard assays were carried out as described by Bonapace et al.
as §1, with “Diagnostic” for “The checkerboard assays were carried out as described by Eliopoulos and Moellering (Chapter 9) in Antibiotic in Laboratory Medicine, Lorian Ed. 1996 as well as Bonapace et al. Diagnostic”, “2002; 44:363-366.” for “2002; 44:363-366 and Bonapace et al. Diagnostic Microbiology and Infectious Diseases 2000; 38:43-50.”, “27853. […] All peptides were assessed for synergy with β-lactams and vancomycin.” for “27853.”, “as the peptides,” for “as PEP35,”, “criteria were” for “criteria was”
as §2
as §3, with “was” for “is”, “additivity/indifference defined as a” for “additivity/indifference”, “between 0.5 and 4” for “>0.5-4”, “antagonism defined as an” for “antagonism”
as §1, §3, §4
(§7) Organisms included Gram-positive cocci (2 strains of each): Methicillin-susceptible Staphylococcus aureus (MSSA), community-associated (CA) and healthcare-associated (HA) methicillin-resistant Staphylococcus aureus (MRSA), vancomycin-intermediate Staphylococcus aureus (VISA), vancomycin-resistant Staphylococcus aureus (VRSA), methicillin-resistant Staphylococcus epidermidis (MRSE), Streptococcus pyogenes, Streptococcus agalactiae, Streptococcus pneumoniae, Enterococcus faecalis, Enterococcus faecium and vancomycin-resistant enterococcus (VRE). […]

VISA = type: cell-based, Staphylococcus aureus
Method: as §6
as §1, with “Diagnostic” for “The checkerboard assays were carried out as described by Eliopoulos and Moellering (Chapter 9) in Antibiotic in Laboratory Medicine, Lorian Ed. 1996 as well as Bonapace et al. Diagnostic”, “2002; 44:363-366.” for “2002; 44:363-366 and Bonapace et al. Diagnostic Microbiology and Infectious Diseases 2000; 38:43-50.”, “27853. […] All peptides were assessed for synergy with β-lactams and vancomycin.” for “27853.”, “as the peptides,” for “as PEP35,”, “criteria were” for “criteria was”
as §2
as §3, with “was” for “is”, “additivity/indifference defined as a” for “additivity/indifference”, “between 0.5 and 4” for “>0.5-4”, “antagonism defined as an” for “antagonism”
as §1, §3, §4, §7

E. faecalis = type: cell-based, Enterococcus faecalis
Method: as §1, §2, §3, §4, §5

S. agalactiae = type: cell-based, Streptococcus agalactiae
Method: as §1, §2, §3, §4, §5

S. pyogenes = type: cell-based, Streptococcus pyogenes
Method: as §1, §2, §3, §4, §5

MRSE = type: cell-based, Staphylococcus epidermidis
Method: as §1, §2, §3, §4, §5

VRE = type: cell-based, Enterococcus faecium
Method: as §1, §2, §3, §4, §5

E. Faecium = type: cell-based, Enterococcus faecium
Method: as §1, §2, §3, §4, §5

[1] = S. pneumoniae-Pen I 72302 (MHB)
[2] = S. pneumoniae-Pen I 78663 (MHB)
[3] = S. pneumoniae-Pen R 76065 (MHB)
[4] = S. pneumoniae-Pen R 78519 (MHB)
[5] = S. pneumoniae-Pen S 70400 (MHB)
[6] = S. pneumoniae-Pen S 71263 (MHB)

Compound | Avg ΣFIC (range) (S. pneumoniae; [1]) | Avg ΣFIC (range) (S. pneumoniae; [2]) | Avg ΣFIC (range) (S. pneumoniae; [3]) | Avg ΣFIC (range) (S. pneumoniae; [4]) | Avg ΣFIC (range) (S. pneumoniae; [5]) | Avg ΣFIC (range) (S. pneumoniae; [6]) | Avg ΣFIC (range) (MSSA; MSSA 79333) | Avg ΣFIC (range) (MSSA; MSSA 83424) | Avg ΣFIC (range) (VISA; VISA 92) | Avg ΣFIC (range) (VISA; VISA 95) | Avg ΣFIC (range) (VISA; VISA 96) | Avg ΣFIC (range) (E. faecalis; E. faecalis 70468) | Avg ΣFIC (range) (E. faecalis; E. faecalis 78145) | Avg ΣFIC (range) (S. agalactiae; S. agalactiae 80870 (MHB)) | Avg ΣFIC (range) (S. agalactiae; S. agalactiae 81262 (MHB)) | Avg ΣFIC (range) (S. pyogenes; S. pyogenes 77765 (MHB)) | Avg ΣFIC (range) (S. pyogenes; S. pyogenes 79531 (MHB)) | Avg ΣFIC (range) (MRSE; MRSE 79617) | Avg ΣFIC (range) (MRSE; MRSE 83100) | Avg ΣFIC (range) (VRE; VRE 70769) | other results
CN(C)c1cc(NC(=O)CNC(C)(C)C)c(O)c2c1C[C@H]1C[C@H]3[C@H](N(C)C)C(O)=C(C(N)=O)C(=O)[C@@]3(O)C(O)=C1C2=O [Tigecycline, tigecycline] | 0.68 (0.53-1.03) | 1.0 (0.56-1.12) | 0.91 (0.62-1.12) | 0.98 (0.75-1.12) | 0.91 (0.62-1.12) | 0.92 (0.56-1.25) | 0.99 (0.62-1.5) | 0.85 (0.5-1.12) | 0.56 (0.31-1.06) | 0.46 (0.37-0.56) and 0.43 (0.31-0.56) | 0.91 (0.62-1.12) | 0.82 (0.5-1.06) | 0.9 (0.5-1.12) | 1.10 (1.0-1.25) | 1.05 (0.75-1.25) | 1.1 (1.0-1.25) | 1.1 (1.0-1.25) | 1.19 (1.03-1.5) | 1.21 (1.03-1.5) | 1.2 (1.03-1.05) | Avg ΣFIC (range) (VRE; VRE 77872): 1.39 (1.03-2.06); Avg ΣFIC (range) (E. Faecium; E. Faecium 78024): 1.19 (1.03-1.5); Avg ΣFIC (range) (E. Faecium; E. Faecium 78352): 0.99 (0.75-1.12)
CN[C@H](CC(C)C)C(=O)N[C@H]1C(=O)N[C@@H](CC(N)=O)C(=O)N[C@H]2C(=O)N[C@H]3C(=O)N[C@H](C(=O)N[C@H](C(=O)O)c4cc(O)cc(O)c4-c4cc3ccc4O)[C@H](O)c3ccc(c(Cl)c3)Oc3cc2cc(c3O[C@@H]2O[C@H](CO)[C@@H](O)[C@H](O)[C@H]2O[C@H]2C[C@](C)(N)[C@H](O)[C@H](C)O2)Oc2ccc(cc2Cl)[C@H]1O [Vancomycin] | 1.26 (1.06-1.5) | 1.1 (1.0-1.25) | 0.86 (0.53-1.25) | 1.2 (1.015-1.5) | 0.91 (0.56-1.25) | 1.05 (0.75-1.25) | 1.11 (1.0-1.25) | 1.19 (1.03-1.5) | 1.1 (1.0-1.25) | 1.1 (1.03-1.25) | 0.88 (0.53-0.125) | 1.1 (1-1.25) | 1.19 (1.03-15) | 1.05 (0.75-1.25) | 1.1 (1.0-1.25) | 1.09 (1.0-1.25) | 1.27 (1.015-2.5) | 0.99 (0.62-1.25) | 0.60 (0.31.12) rpt | 0.92 (0.506-1.25) | Avg ΣFIC (range) (VRE; VRE 77872): 1.19 (1.03-1.5); Avg ΣFIC (range) (E. Faecium; E. Faecium 78024): 1.19 (1.03-1.5); Avg ΣFIC (range) (E. Faecium; E. Faecium 78352): 1.59 (1.06-2.5)
